From patent publication US20220054658A1, “CONJUGATES” (Transfection Holdings Limited, priority 2018, published 2022)
Entries after “also recorded” stand apart in the source; their conditions may differ.

Experiments:
C. elegans = assay: Conjugate uptake in C. elegans (dye and praziquantel conjugates, fluorescence microscopy); assay type: in vivo, Caenorhabditis elegans; details: 50 μM
Method: Nematode Growth Media (NGM) plates containing C. elegans were washed with 1.0-1.5 mL of standard M9 buffer and the washes were collected in an Eppendorf tube. The liquid containing the C. elegans was then spun for 1 min at room temperature at 10,000 rpm. The supernatant was removed, and fresh M9 buffer was added (500 μL) to generate a new stock solution of M9 buffer containing the C. elegans.
A C. elegans suspension (100 μL) was added a defined amount of M9 buffer (determined by the final desired concentration of compound to be tested: 399 μL in the case of the BODIPY tagged derivatives) contained within a separate Eppendorf tube. To this was then added a 25 mM solution of the compound in DMSO (1 μL). The resulting suspension was mixed using a vortex instrument.
The resulting mixture was incubated at room temperature for 2 to 4 h. in the dark (using aluminium foil to screen the tube, which was also stored in a cabinet).
Other samples were incubated overnight. Here, OP50 bacteria (3 μL) were added to the worms for feeding purposes, and the worms were kept in the dark at 20° C.
After the incubation, the tube contents were mixed gently by hand (typically by simple rotation of the tube), so as to achieve a homogenous suspension. A sample of the suspension (250 μL) was taken and mixed with M9 buffer (500 μL). The resulting suspension was placed in a centrifuge and spun at room temperature at 10,000 rpm for 1 min. The supernatant was removed, and the washing process was repeated twice more, each time using further quantities of fresh M9 buffer (500 μL each time). After the final washing sufficient supernatant was removed so as to leave a final sample volume of approximate 30 μL.
A 1.5% agarose solution in water was pre-warmed for 60 to 90 s. in a standard household style microwave (set to Power 4). Two drops of this solution was removed and placed on a glass slide. The glass slide was covered with a second glass slide. After 1 min., the slides were slid carefully apart, with the agarose remaining on one of the slides. Onto this slide was placed an aliquot of the final C. elegans solution (15 to 20 μL). To this was added a 20 mM sodium azide solution (5 μL) to inhibit nematode mobility. Vaseline was then placed around the agarose area before replacing the second slide. The slides were not pressed together.
The nematodes were then analysed using a Zeiss Axiskop 2 Plus microscope with a Hamamatsu Orca-ER (CA 742-95) camera. The images were resolved using OpenLab on a Mac operating system.
Compounds 1-11 were evaluated after 3 h and overnight incubation at a 50 μM concentration using the general uptake protocol described for C. elegans.
In order to compare the ability of a conjugate to improve the uptake of the drug praziquantel, two praziquantel derivatives were generated. Praziquantel was tagged with a BODIPY fluorescent tag (compound 12) and incorporated into a conjugate of the invention (compound 13). Compounds 12 and 13 were evaluated at a concentration of 50 μM using the C. elegans uptake protocol described above for compounds 1-11. Microscopic readings were taken after 3, 24 and 72 h.

[1] = tested on: gastrointestinal system (crop, midgut and rectum) of adult honey bees; assay: Honey bee gut uptake test; parameters: species or system Apis mellifera; details: 100 μM, 33° C., 45 min
Method: Honey bee (A. mellifera) hives were obtained and allowed to feed ab libitum spring to autumn. During the winter period, pollen mixed with 50% (v/v) sucrose was added to the honey bee hives in order to provide sufficient food. Honey bees were dissected and gastrointestinal system was removed including the crop, midgut and rectum, and added immediately to 500 μL of the delivery vehicle to be tested sample diluted with PBS at 100 μM final concentration or DMSO (0.1%) control. The mixture was incubated for 45 min at 33° C.
The gastrointestinal system (crop, midgut and rectum) of adult honey bees was extracted, and incubated with derivatives 1, 2, 8 and 11 at 100 μM and 33° C. for 45 min.

[2] = tested on: M. tuberculosis strain H37Rv; assay: Uptake test in M. tuberculosis; assay type: cell-based, Mycobacterium tuberculosis; details: 50 μg/mL (~80 μM), room temperature, 45 min
L. passim strain PRA-403 = assay: Lotmaria passim parasite uptake test; assay type: cell-based; details: room temperature, 45 min
Method: 100 mM stock solutions of BODIPY derivatives were prepared with dimethylsulfoxide (DMSO). L passim strain PRA-403 (ATCC) was cultured in modified medium for C. bombi (Tognazzo et al.). The parasite culture was centrifuged, supernatant was removed and 500 μL of L passim medium with compound (final concentration 500, 100, 10 or 1 μM for BODIPY derivatives) or DMSO (0.1%) control was added. Incubated for 45 min at room temperature.
Uptake tests were performed at 1 μM and 100 μM final concentration of CJ-BODIPY derivatives. After incubation at room temperature for 45 min, fluorescence intensities were evaluated using a microplate reader.

B. bovis Texas strain = assay: Short-term uptake test in B. bovis infected RBCs (confocal microscopy); details: 25 μM, 37° C., 45 min, ~5% PPE
Method: The parasite culture was centrifuged and washed once with GIT medium. RBC's were pellet down, and 20 μl infected RBC mixture (10 μl packed infected RBC+10 μl GIT) was prepared. Then, 180 μl GIT medium with compound the compound to be evaluated (final concentration 25 μM for BODIPY derivatives and 100 μM for phiLOV derivatives) or DMSO (0.1%)/PBS control was added. The samples were incubated for 45 min at 37° C. (Samples were stained 1 μg/mL diluted Hoechst 33342 in GIT medium). After incubation, the samples were centrifuged and the pellet was washed with GIT medium (3×). A final solution of 50% haematocrit infected RBC mixture was transferred to slides to be observed by confocal laser microscopy (Nikon A1).
Uptake experiments were performed by incubating the parasite (˜5% Parasitized Erythrocytes (PPE)) with each derivative at 25 μM and 37° C. for 45 min. After incubation, the fluorescence intensities were calculated from confocal microscope images.
The phiLOV double mutant (R475G, K476C) was used to generate derivatives P11, P1, P8, and P3 which were tested for uptake in B. bovis Texas strain using phiLOV as a control. The derivatives and the control were incubated at 100 μM and 37° C. for 45 min. After incubation, the samples were analysed under confocal microscopy using Hoeschst 33342 (Thermofisher) as co-stain.

T. annulata = assay: Theileria annulata testing: uptake; assay type: cell-based; details: 1 hour, 37° C.
Method: T. annulata were cultured using RPMI 1640 with 10% Albumax II (Thermo-Fisher) serum. A standard hemocytometer was used to calculate the concentration of cells in the parent culture. […] For each compound and concentration to be tested, 2 mL of the culture were centrifuged at 1,000 rpm for 5 minutes. The medium was removed before the cells were resuspended in 950 μL of complete medium containing the compound to be tested at the desired concentration. This was prepared from a 100 mM stock solution of compound in DMSO. Once the cells were resuspended they were transferred to a 5 well plate (1 mL capacity per well). They were then incubated for 1 hour at 37° C. in an atmosphere of 5% CO2 in air. After the incubations were complete the contents of each well were transferred to a 10 mL centrifuge tube. Cold RPMI 1640 (Thermofisher) or HBSS added to obtain a volume of 5 mL. The suspension was then centrifuged at 1,000 rpm and at 4° C. for 5 minutes. […] After the final washing the pellet of cells was resuspended in a minimum amount of RPMI 1640 and then spotted onto a glass slide. The slide was then covered with a cover slip and analysed using Olympus BX60 UV microscope system with a Spot RT3 camera and Spot Image software with a FITC fluorescent filter.

P. falciparum = assay: Plasmodium falciparum testing: uptake by infected and non-infected red blood cells; assay type: cell-based; details: 25 μM, 45 minutes, 37° C., synchronised stage and mix-stage cultures
Method: Compounds 1, 5, 9, 10 and 11 were tested for uptake in both synchronised stage and mix-stage cultures at 25 μM concentrations.

T. brucei = assay: Trypanosoma brucei testing: uptake; assay type: cell-based; details: 10-25 μM, 45 minutes, 37° C.
[3] = tested on: mixed culture of wild type nematodes (roundworms, tape worms and flukes); assay: Nematode testing: mixed culture of wild type nematodes; assay type: in vivo; details: 20 h incubation
Method: A mixed culture of wild type nematodes (roundworms, tape worms and flukes), obtained from Massey University's sheep farm, were incubated for 20 h with compound 14, compound and commercially available ivermectin B1a, as a control. The protocol followed is the same as the C. elegans protocol used previously.

Compound | uptake: location of fluorescence in C. elegans (C. elegans; 3 h incubation) | uptake: location of fluorescence in C. elegans (C. elegans; 20 h / overnight incubation) | fluorescence in honey bee gut (crop, midgut, rectum) [1] | uptake in M. tuberculosis (fluorescence intensity / microscopy) [2] | uptake compared to compound 1 (% less) (B. bovis Texas strain) [%] | uptake compared to other compounds (C. elegans; 20 h incubation) | uptake in T. annulata (T. annulata) | uptake by infected and non-infected red blood cells (P. falciparum) | concentration at which nematodes showed paralysis [3] [µM] | further results
CC1=CC(C)=[N+]2C1=Cc1ccc(CCCn3cc(CCNC(=O)/C=C\NC(=O)[C@H]4OC(C)(C)OCC4(C)C)nn3)n1[B-]2(F)F [Compound 2, (Z)—N-((((3-[4,4-Difluoro-5,7-dimethyl-4-bora-3a,4a-diaza-s-indacene-3-yl]propyl)-1H-1,2,3-triazol-4-yl)ethylamino)-3-oxoprop-1-enyl)-2,2,5,5-tetramethyl-1,3-dioxane-4-carboxamide] | traces of compound 2 were observed in the pharynx, gut cells and gut lumen of the larval stages | fluorescence was localised in the gut cells, gut lumen and to a lesser extent within the pharynx of the larvae | slight fluorescence in midgut and rectum, but none in the crop; also recorded: localised on the surface of the gut, but not inside of it | preferred over their S counterparts; also recorded: highest fluorescence signals; also recorded: fluorescence is localised at the poles | 90 |  |  |  |  | fluorescence intensity compared to compound 1 [2]: around 2.5 times; uptake in L. passim (fluorescence intensity, microplate reader) (L. passim strain PRA-403; 1 μM and 100 μM): highest reading amongst all the compounds tested; uptake in L. passim (fluorescence microscopy) (L. passim strain PRA-403; 500 μM): exhibited fluorescence in the parasite's cytosol, with the derivative forming fluorescence dots
CC1=CC(C)=[N+]2C1=Cc1ccc(CCCn3cc(CCNC(=O)CCNC(=O)[C@@H]4OC(C)(C)OCC4(C)C)nn3)n1[B-]2(F)F [Compound 10, (R)—N-((((3-[4,4-Difluoro-5,7-dimethyl-4-bora-3a,4a-diaza-s-indacene-3-yl]propyl)-1H-1,2,3-triazol-4-yl)ethylamino)-3-oxopropyl)-2,2,5,5-tetramethyl-1,3-dioxane-4-carboxamide] | traces of compound 10 were detected in the gut cells and gut lumen of the larvae; also recorded: also visible to a lesser degree in the pharynx of the larvae | fluorescence was visible in the gut cells and in a smaller amount in the pharynx of the larval stages |  | minimal uptake |  | comparable with the enamide compounds showing the least uptake | very limited uptake | not taken up to any visible extent |  | 
CC1=CC(C)=[N+]2C1=Cc1ccc(CCCn3cc(CCNC(=O)CCNC(=O)[C@H](O)C(C)(C)CO)nn3)n1[B-]2(F)F [Compound 9, (R)—N-((((3-[4,4-Difluoro-5,7-dimethyl-4-bora-3a,4a-diaza-s-indacene-3-yl]propyl)-1H-1,2,3-triazol-4-yl)ethylamino)-3-oxopropyl)-2,4-dihydroxy-3,3-dimethylbutanamide] | traces of compound 9 were visible in the get cells and to a lesser extent 30 in the pharynx of both the larvae and the adult nematodes | small amounts of fluorescence could be detected in the gut cells of both larval and adult stages |  |  |  | the amount of fluorescence was lower than the enamide derivatives, compounds 1 to 8 | taken up by T. annulata; also recorded: taken up more rapidly and fluorescence can be detected at lower concentrations albeit it is also present in the infected lymphocyte | taken up very quickly by both infected and non-infected erythrocytes, with very little difference in uptake between the two sets of red blood cells |  | uptake compared to other compounds (C. elegans; 3 h incubation): the amount of fluorescence was lower than the enamide derivatives, compounds 1 to 8; uptake in T. brucei (T. brucei): taken up much more rapidly and in much higher concentrations than compound 5; also recorded: spread throughout the cell
CC1=CC(C)=[N+]2C1=Cc1ccc(CCCN=[N+]=[N-])n1[B-]2(F)F [Compound 11, 3-Azido[4,4-difluoro-5,7-dimethyl-4-bora-3a,4a-diaza-s-indacene-3-yl]propane, reference compound] | slight fluorescence after 3 h, focalized in the gut lumen and gut cells | no significant increase in fluorescence even after 20 h incubation | showed only autofluorescence |  | 90 |  | diffused indiscriminately | diffused into every red blood cell (both infected and non-infected) |  | 
4″-O—[(R,Z)-3-(2,2,5,5-Tetramethyl-1,3-dioxane-4-carboxamido)acrylate]avermectin B1a [Compound 14] |  |  |  |  |  |  |  |  | 5 | activity against nematodes relative to ivermectin B1a [3]: enhanced activity against nematodes relative to commercially available ivermectin B1a
CC[C@H](C)[C@H]1O[C@]2(CC[C@@H]1C)C[C@@H]1C[C@@H](C/C=C(\C)[C@@H](O[C@H]3C[C@H](OC)[C@@H](O[C@H]4C[C@H](OC)[C@@H](O)[C@H](C)O4)[C@H](C)O3)[C@@H](C)/C=C/C=C3\CO[C@@H]4[C@H](O)C(C)=C[C@@H](C(=O)O1)[C@]34O)O2 [ivermectin B1a, reference compound] |  |  |  |  |  |  |  |  | 50 | 
